From patent publication US11523614B2, “Soluble granule of Bacillus velezensis and its preparation method” (priority 2019, dated 2022)
Like-named read-outs stand apart in the source and are kept apart here.

Columns and labels:
Assay type in all cases: in vivo
Meloidogyne incognita [1] = assay: Population density of J2 of root knot nematodes in soil, cucumber greenhouse; conditions: for Population decline rate / Relative population reduction rate: J2 in soil; for Population decline rate: before administration vs end of test; for Relative population reduction rate: compared with the blank control; for population density of second instar larvae in soil, Before administration / population density of second instar larvae in soil, End of test: cucumber greenhouse soil
Rice blast [2] = conditions: for Avg. control effect: leaf blast
cucumber = assay: Cucumber plant height at early stage; conditions: for Growth effect: plant height compared with CK0; for plant height at early stage, Avg. value: average of three replicates; for plant height at early stage, R1: average value of replicate 1; for plant height at early stage, R3: average value of replicate 3
Rice blast [3] = conditions: 27 d After first administration; for Relative control: panicle blast
Meloidogyne incognita [4] = assay: Root-knot disease index of cucumber; conditions: for root-knot index of plants, Avg. value: average of three replicates; for root-knot index of plants, R1: average value of replicate 1; for root-knot index of plants, R3: average value of replicate 3
[5] = 14 d After first administration
[6] = before the first administration
[7] = root-knot index compared with CK0

| SMILES | Population decline rate (Meloidogyne incognita [1]) [%] | Relative population reduction rate (Meloidogyne incognita [1]) [%] | Avg. leaf blast disease index (Rice blast [2]; 7 d After first administration) | Avg. leaf blast disease index (Rice blast [2]; [5]) | Avg. control effect (Rice blast [2]; 7 d After first administration) | Avg. control effect (Rice blast [2]; [5]) [A %] | Growth effect (cucumber) [%] | Avg. panicle blast disease index (Rice blast [3]) | Relative control (Rice blast [3]) [A %] | population density of second instar larvae in soil, Before administration (Meloidogyne incognita [1]) [strip/100 mL soil] | population density of second instar larvae in soil, End of test (Meloidogyne incognita [1]) [strip/100 mL soil] | plant height at early stage, Avg. value (cucumber) | plant height at early stage, R1 (cucumber) [cm] | plant height at early stage, R3 (cucumber) [cm] | root-knot index of plants, Avg. value (Meloidogyne incognita [4]) | root-knot index of plants, R1 (Meloidogyne incognita [4]) | root-knot index of plants, R3 (Meloidogyne incognita [4]) | further results |
| --- | --- | --- | --- | --- | --- | --- | --- | --- | --- | --- | --- | --- | --- | --- | --- | --- | --- | --- |
| C[C@H]1O[C@H](O[C@H]2[C@H](O)[C@@H](O)[C@@H](O)[C@H](O)[C@@H]2O)[C@@H](N)C[C@@H]1NC(=N)C(=O)O [CK2, kasugamycin] | 73.31 | 76.05 | 2.26 | 2.30 | 40.8AB % | 55.7 | 6.5 | 0.86 | 66.3 |  |  |  |  |  |  |  |  | Leaf blast disease index before first administration (Rice blast [2]; [6]): 1.61 |
| CN1CSC(=S)N(C)C1 [Dazomet, dazomet] | −119.21 | −116.47 |  |  |  |  | −0.4 |  |  | 429 | 940 | 100.6a cm | 98.5 | 103.5 | 26.44ab | 27.33 | 26.33 | Control effect on root-knot index (Meloidogyne incognita [4]; [7]): 26.77% |
| Cc1cccc2sc3nncn3c12 [CK3, Tricyclazole] |  |  | 2.04 | 2.14 | 48.2A % | 60.3 |  | 0.65 | 74.7 |  |  |  |  |  |  |  |  | Leaf rust before administration (Rice blast [2]; [6]): 1.59 |
| O=C(NCc1ncc(C(F)(F)F)cc1Cl)c1c(Cl)cccc1Cl [Fluopicolide, fluopicolide] | 73.31 | 76.05 |  |  |  |  | 6.5 |  |  | 390 | 104 | 107.6bc cm | 109.4 | 109.3 | 25.00a | 28.33 | 24.67 | Growth effect (Meloidogyne incognita [4]; [7]): 30.77% |
